Assay results from US8399521B2, “Methods of treating skin with aromatic skin-active ingredients” (Mary Kay Inc., priority 2008, dated 2013).

Key:
Assay type in all cases: biochemical
COX-1 = molecular target: T1, COX-1 (Ovis aries, UniProt P05979); test: Colorimetric COX (ovine) inhibitor screening assay, COX-1; conditions: negative = inhibition vs non-treated control; for Cox-1 Inhibition (0.020%): 0.020% test compound, Table 2
T1 construct: purchased Cayman Chemical 760111
T1 sequence (P05979 25-600): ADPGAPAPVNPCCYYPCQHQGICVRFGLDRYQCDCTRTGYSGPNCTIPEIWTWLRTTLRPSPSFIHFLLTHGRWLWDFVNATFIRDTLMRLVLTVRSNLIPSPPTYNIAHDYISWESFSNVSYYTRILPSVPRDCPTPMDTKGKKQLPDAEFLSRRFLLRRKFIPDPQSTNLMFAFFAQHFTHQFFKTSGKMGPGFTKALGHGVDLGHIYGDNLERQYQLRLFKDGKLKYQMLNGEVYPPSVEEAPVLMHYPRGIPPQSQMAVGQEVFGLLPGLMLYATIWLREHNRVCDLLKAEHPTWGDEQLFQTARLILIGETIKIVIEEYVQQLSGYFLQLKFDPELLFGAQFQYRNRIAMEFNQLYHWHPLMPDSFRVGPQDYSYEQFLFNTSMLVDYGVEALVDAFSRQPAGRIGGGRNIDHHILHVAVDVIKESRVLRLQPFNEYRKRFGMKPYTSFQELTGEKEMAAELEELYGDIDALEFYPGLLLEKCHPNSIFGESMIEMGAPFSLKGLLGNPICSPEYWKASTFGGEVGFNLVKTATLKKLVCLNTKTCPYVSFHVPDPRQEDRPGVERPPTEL
Excerpt: (§1) Cyclooxygenase (COX) assay: An in vitro cyclooxygenase-1 and -2 (COX-1, -2) inhibition assay. […] The cyclooxygenase activity converts arachidonic acid to a hydroperoxy endoperoxide (Prostaglandin G2; PGG2) and the peroxidase component reduces the endoperoxide (Prostaglandin H2; PGH2) to the corresponding alcohol, the precursor of prostaglandins, thromboxanes, and prostacyclins. This COX Inhibitor Screening Assay measures the peroxidase component of cyclooxygenases. The peroxidase activity is assayed colorimetrically by monitoring the appearance of oxidized N,N,N′,N′-tetramethyl-p-phenylenediamine (TMPD). This inhibitor screening assay includes both COX-1 and COX-2 enzymes in order to screen isozyme-specific inhibitors.
(§2) Following manufacturer instructions for the Colormetric COX (ovine) Inhibitor screening assay (#760111, Cayman Chemical), purified cyclooxygnase enzyme (COX-1 or COX-2), heme and test compounds were mixed in assay buffer and incubated with shaking for 15 min at room temperature. Following incubation, arachidonic acid and colorimetric substrate were added to initiate the reaction and incubated for an additional 15 min at room temperature with shaking. Color progression was evaluated by fluoresecence plate reading at 590 nm. The percent inhibition of COX-1 or COX-2 activity was calculated compared to non-treated controls to determine the ability of test compounds to inhibit the activity of purified enzyme.

15-lipoxygenase = molecular target: T2, 15-lipoxygenase (Glycine max, UniProt P08170); test: Lipoxygenase (LO) inhibition assay; conditions: 0.1% test compound; negative = inhibition vs non-treated control; Table 2
T2 construct: purchased Cayman Chemical 760700
T2 sequence (P08170 1-839): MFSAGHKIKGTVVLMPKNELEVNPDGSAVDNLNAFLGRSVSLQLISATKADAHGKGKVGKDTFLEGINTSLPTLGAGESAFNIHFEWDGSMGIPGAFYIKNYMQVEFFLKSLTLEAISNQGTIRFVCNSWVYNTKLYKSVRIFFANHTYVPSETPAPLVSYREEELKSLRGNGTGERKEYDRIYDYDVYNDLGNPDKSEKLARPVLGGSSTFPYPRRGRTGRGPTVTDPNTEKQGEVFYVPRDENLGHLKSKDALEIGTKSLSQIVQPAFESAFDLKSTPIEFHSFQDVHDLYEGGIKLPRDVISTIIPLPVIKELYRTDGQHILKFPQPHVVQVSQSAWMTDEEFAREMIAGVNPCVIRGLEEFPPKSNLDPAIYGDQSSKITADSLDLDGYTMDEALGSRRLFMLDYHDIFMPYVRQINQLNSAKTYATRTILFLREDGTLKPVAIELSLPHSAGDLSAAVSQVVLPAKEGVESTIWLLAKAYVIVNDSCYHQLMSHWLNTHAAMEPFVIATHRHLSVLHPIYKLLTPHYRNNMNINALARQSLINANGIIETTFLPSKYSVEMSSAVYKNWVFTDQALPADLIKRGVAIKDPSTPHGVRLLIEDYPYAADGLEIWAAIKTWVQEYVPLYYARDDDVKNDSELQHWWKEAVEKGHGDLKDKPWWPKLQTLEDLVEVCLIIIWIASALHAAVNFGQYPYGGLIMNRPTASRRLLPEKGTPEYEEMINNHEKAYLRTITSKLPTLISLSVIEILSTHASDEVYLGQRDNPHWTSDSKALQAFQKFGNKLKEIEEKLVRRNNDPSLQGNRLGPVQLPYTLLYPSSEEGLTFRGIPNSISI
Experimental: Lipoxygenase (LO) assay: An in vitro lipoxygenase (LO) inhibition assay. LOs are non-heme iron-containing dioxygenases that catalyze the addition of molecular oxygen to fatty acids. Linoleate and arachidonate are the main substrates for LOs in plants and animals. […] This assay provides an accurate and convenient method for screening lipoxygenase inhibitors by measuring the hydroperoxides generated from the incubation of a lipoxygenase (5-, 12-, or 15-LO) with arachidonic acid.
Following incubation, arachidonic acid was added to initiate the reaction and mixtures incubated for an additional 10 min at room temperature. Colorimetric substrate was added to terminate catalysis and color progression was evaluated by fluorescence plate reading at 490 nm. The percent inhibition of lipoxyganse activity was calculated compared to non-treated controls to determine the ability of test compounds to inhibit the activity of purified enzyme.

MMP9 = molecular target: T3, MMP9 (Homo sapiens, UniProt P14780); test: Matrix metalloproteinase enzyme activity assay, MMP9; conditions: for inhibition at 0.01 % / MMP9 Inhibition (0.01%): 0.01% test compound, Table 3; for MMP9 Inhibition (0.001%): 0.001% test compound, Table 2; for MMP9 Inhibition (0.001%) / MMP9 Inhibition (0.01%): negative = inhibition vs diluent control
T3 construct: purchased BioMol International AK-410
T3 sequence (P14780 107-444 limits assumed): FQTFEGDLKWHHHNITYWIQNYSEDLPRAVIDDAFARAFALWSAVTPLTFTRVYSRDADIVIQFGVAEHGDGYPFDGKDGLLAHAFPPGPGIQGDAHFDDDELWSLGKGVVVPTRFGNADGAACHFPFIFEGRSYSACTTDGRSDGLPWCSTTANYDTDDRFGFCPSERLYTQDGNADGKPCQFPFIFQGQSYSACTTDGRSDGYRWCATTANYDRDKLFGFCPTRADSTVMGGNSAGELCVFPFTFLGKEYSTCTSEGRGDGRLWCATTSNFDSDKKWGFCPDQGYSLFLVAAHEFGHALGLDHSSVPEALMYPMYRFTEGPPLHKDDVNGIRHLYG
Excerpt: (§3) Matrix metalloproteinase enzyme activity (MMP3; MMP9) assay: An in vitro matrix metalloprotease (MMP) inhibition assay. MMPs are extracellular proteases that play a role in many normal and disease states by virtue of their broad substrate specificity. MMP3 substrates include collagens, fibronectins, and laminin; while MMP9 substrates include collagen VII, fibronectins and laminin. Using Colorimetric Drug Discovery kits from BioMol International for MMP3 (AK-400) and MMP-9 (AK-410), this assay is designed to measure protease activity of MMPs using a thiopeptide as a chromogenic substrate (Ac-PLG-[2-mercapto-4-methyl-pentanoyl]-LG-OC2H5)5,6. The MMP cleavage site peptide bond is replaced by a thioester bond in the thiopeptide. Hydrolysis of this bond by an MMP produces a sulfhydryl group, which reacts with DTNB [5,5′-dithiobis(2-nitrobenzoic acid), Ellman's reagent] to form 2-nitro-5-thiobenzoic acid, which can be detected by its absorbance at 412 nm (ε=13,600 M-1 cm-1 at pH 6.0 and above 7). Data is reflected as % inhibition of the purified enzyme activity.

COX-2 = molecular target: T4, COX-2 (Ovis aries, UniProt P79208); test: Colorimetric COX (ovine) inhibitor screening assay, COX-2; conditions: 0.001% test compound; for Cox-2 Inhibition (0.001%): negative = inhibition vs non-treated control; for inhibition at 0.001 %: 0.25 h
T4 construct: purchased Cayman Chemical 760111
T4 sequence (P79208 17-603): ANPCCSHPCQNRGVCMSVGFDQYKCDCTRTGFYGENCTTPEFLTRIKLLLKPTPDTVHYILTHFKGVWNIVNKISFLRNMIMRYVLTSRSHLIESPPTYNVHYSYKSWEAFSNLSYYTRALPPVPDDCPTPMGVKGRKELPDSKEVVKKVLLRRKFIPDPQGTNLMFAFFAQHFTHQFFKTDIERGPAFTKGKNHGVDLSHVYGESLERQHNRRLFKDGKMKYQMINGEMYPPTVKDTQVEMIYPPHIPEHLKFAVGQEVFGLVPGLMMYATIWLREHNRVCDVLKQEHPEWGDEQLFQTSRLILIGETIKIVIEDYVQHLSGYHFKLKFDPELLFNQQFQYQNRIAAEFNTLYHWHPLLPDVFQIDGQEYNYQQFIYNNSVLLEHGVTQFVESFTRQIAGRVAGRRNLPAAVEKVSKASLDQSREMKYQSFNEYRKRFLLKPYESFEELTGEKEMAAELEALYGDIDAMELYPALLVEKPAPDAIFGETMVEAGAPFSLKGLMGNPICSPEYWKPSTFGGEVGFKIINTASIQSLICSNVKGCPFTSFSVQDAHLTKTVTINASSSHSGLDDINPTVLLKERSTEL
Excerpt: as §1, §2

MMP3 = molecular target: T5, MMP3 (Homo sapiens, UniProt P08254); test: Matrix metalloproteinase enzyme activity assay, MMP3; conditions: 0.001% test compound; negative = inhibition vs diluent control; Table 2
T5 construct: purchased BioMol International AK-400
T5 sequence (P08254 100-272 limits assumed): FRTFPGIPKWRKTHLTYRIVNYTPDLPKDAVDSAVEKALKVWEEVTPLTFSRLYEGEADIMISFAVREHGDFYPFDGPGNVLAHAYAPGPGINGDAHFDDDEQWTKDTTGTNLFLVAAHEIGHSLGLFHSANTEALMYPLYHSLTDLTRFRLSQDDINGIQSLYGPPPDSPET
Excerpt: as §3

Compound: CC(=O)OC1CCC(C(C)(C)C)CC1 (stereo not drawn) [Vertenex ® H.C., 4-tert-butylcyclohexyl acetate]
- Cox-1 Inhibition (0.020%) (COX-1): −18.50%
- LO Inhibition (0.1%) (15-lipoxygenase): −37.86%

Compound: CCC/C=C\COC(C)=O [Leaf Acetate, cis-2-hexenyl acetate]
- inhibition at 0.01 % (MMP9): 22%

Compound: CC/C=C(\C)C(O)CCCCC (stereo not drawn) [4-methyl-3-decen-5-ol]
- inhibition at 0.01 % (MMP9): 28.1%

Compound: 2,6-nonadien-1-al (trans, trans; trans, cis)
- Cox-2 Inhibition (0.001%) (COX-2; Table 2): −17.58%
- MMP9 Inhibition (0.001%) (MMP9): −32.53%
- Cox-1 Inhibition (0.020%) (COX-1): −11.42%
- MMP3 Inhibition (0.001%) (MMP3): −20.34%
- LO Inhibition (0.1%) (15-lipoxygenase): −45.58%

Compound: (2,4,6-)trimethyl-3-cyclohexene-1-carboxaldehyde and (3,5,6-)trimethyl-3-cyclohexene-1-carboxaldehyde [Iso Cyclo Citral]
- Cox-2 Inhibition (0.001%) (COX-2; Table 3): −31.58%
- MMP9 Inhibition (0.01%) (MMP9): −21.78%

Compound: CC(C)=CCCC(C)C=O (stereo not drawn) [Melanol, 2,6-dimethyl-5-heptenal]
- LO Inhibition (0.1%) (15-lipoxygenase): −20.45%

Compound: 3-hexen-1-ol (E) and (Z)
- Cox-2 Inhibition (0.001%) (COX-2; Table 3): −23.56%
- MMP9 Inhibition (0.01%) (MMP9): −23.82%

Compound: C=C1CCCC(C)(C)C1C(=O)OC (stereo not drawn) [Romascone ®, methyl 2,2-dimethyl-6-methylenecyclohexanecarboxylate]
- inhibition at 0.001 % (COX-2; Table 3): 23.3%

Compound: O=C1CCCCCCCCCCCC(=O)OCCO1 [Ethylene Brassylate, 1,4-dioxacycloheptadecane-5,17-dione]
- inhibition at 0.001 % (COX-2; Table 3): 20.6%
- inhibition at 0.01 % (MMP9): 33%

Compound: CCOC(=O)C1C2C=CC(C2)C1C(C)C (stereo not drawn) [Herbanante, ethyl 3-isopropylbicyclo[2.2.1]hept-5-ene-2-carboxylate]
- inhibition at 0.001 % (COX-2; Table 3): 25.1%
- inhibition at 0.01 % (MMP9): 26.8%

Compound: CCCCCCCCC/C=C/C=O [2-dodecenal (E)]
- MMP9 Inhibition (0.001%) (MMP9): −24.98%

Compound: CC(=O)/C=C/C1=C(C)CCCC1(C)C [Beta Ionone, (3E)-4-(2,6,6-trimethylcyclohex-1-en-1-yl)but-3-en-2-one]
- MMP9 Inhibition (0.001%) (MMP9): −19.82%

Compound: CCC/C(CC(=O)CC)=N/O [Stemone, (Z)-5-(hydroxyimino)octan-3-one]
- inhibition at 0.001 % (COX-2; Table 3): 22.3%

Compound: CCCC/C=C/C=C/C=O [2,4-nonadien-1-al]
- inhibition at 0.001 % (COX-2; Table 2): 21.1%
- MMP9 Inhibition (0.001%) (MMP9): −19.87%
- MMP3 Inhibition (0.001%) (MMP3): −23.75%

Compound: CC1=CCC(/C=C/C(C)(C)C(C)O)C1(C)C (stereo not drawn) [Polysantol, 3,3-dimethyl-5(2,2,3-trimethyl-3-cyclopenten-1-yl)-4-penten-2-ol]
- inhibition at 0.001 % (COX-2; Table 3): 36.1%

Compound: CC(C)=CCCC1=CCCC(C)(C=O)C1 (stereo not drawn) [Precyclemone B, 1-methyl-3-(4-methylpent-3-enyl)cyclohex-3-enecarbaldehyde]
- MMP3 Inhibition (0.001%) (MMP3): −25.09%

Compound: 1-(1,2,3,4,5,6,7,8-octahydro-2,3,8,8-tetramethyl-2-naphthalenyl)ethan-1-one; 1-(2,3,8,8-tetramethyl-1,2,3,5,6,7,8,8a-octahydronaphthalen-2-yl)ethanone; and 1-(2,3,8,8-tetramethyl-1,2,3,4,6,7,8,8a-octahydronaphthalen-2-yl)ethanone [Iso E super]
- Cox-2 Inhibition (0.001%) (COX-2; Table 3): −20.80%

Compound: CCCCCCCCCCCC=O [Aldehyde C-12 Lauric, 1-dodecanal]
- MMP9 Inhibition (0.001%) (MMP9): −27.64%

Compound: CCCCCC1CCC(=O)O1 (stereo not drawn) [Aldehyde C-18, 5-pentyldihydrofuran-2(3H)-one]
- inhibition at 0.001 % (COX-2; Table 3): 22.6%
- inhibition at 0.01 % (MMP9): 22.2%

Compound: CC(=O)OCCC(C)CCC=C(C)C (stereo not drawn) [Citronellyl Acetate, 3,7-dimethyl-6-octen-1-yl acetate]
- inhibition at 0.001 % (COX-2; Table 4): 20.9%
- Cox-1 Inhibition (0.001%) (COX-1; 0.001% test compound, Table 4): −27.99%

Compound: 3a,4,5,6,7,7a-hexahydro-4,7-methano-1h-inden-5(or 6)-yl acetate [Cyclacet]
- LO Inhibition (0.1%) (15-lipoxygenase): −26.37%

Compound: CC/C=C\CCCCC=O [Cis-6-Nonenal, cis-6-nonenal]
- inhibition at 0.001 % (COX-2; Table 3): 27.1%
- inhibition at 0.01 % (MMP9): 19.2%
